In article PMC10279755 (Nature Communications, 2023):
Where two headings read alike, the source gives them in different places. Blank lines part the entries; values can stand above or below the molecule they belong to. Ends that are not written are not given here.

Columns and labels:
[1] = system: aminopeptidase N (APN); experiment: In vitro aminopeptidase N (APN) activity assay with Ala-MCA in HUVECs; assay type: cell-based, human; details: 100 μM Ala-MCA in PBS, curcumin 50 µM, 24 h, fluorescence λex 360 nm, λem 460 nm
Method: HUVEC cells were plated in a 96-well plate at a density of 5000 cells per well in 200 μL complete ECGM V2 media per well. After culturing for 24 h, cells were washed with 1X PBS two times. […] The release of fluorescent product 7-amino-4-methylcoumarin in the media was monitored on the plate reader (BioTek Cytation3 imaging reader) with λex of 360 nm and peak λem of 460 nm.

[2] = system: HUVECs; parameters: method as in earlier work; details: curcumin up to 100 µM, up to 72 h; ref Kumar et al. 1998; Do et al. 2022; Ouyang et al. 2019; Hosseini et al. 2019; Yuan et al. 2022; cited from earlier work
Source text: page 17: Reviewer #3 Specific Comment 1. I have one very major concern that should be experimentally addressed.

[3] = system: HUVECs (cell surface laminin receptor integrin); experiment: In vitro study of biological function using fluorescent probe: rhodamine B-labeled peptide attachment to HUVECs (CTCF); assay type: cell-based, human
Method: HUVECs were plated at a density of 0.1 million cells per well in a 24-well plate with 0.5 mL complete ECGM per well and cultured for 24 h, followed by washing with 1× PBS three times and the addition of 950 μL serum-free ECGM per well. Rhodamine B labeled peptide solution (50 μL in serum-free ECGM, 1 mM) was mixed with 0.05% trypsin (5 μL). The mixed solution was then added to each well for a total volume of 1005 μL. Cells were incubated with the mixed solution for various time periods. At different time points (1 h up to 30 h), the media was removed, and cells were washed with PBS three times. Fresh PBS (500 μL) was added to the wells, and the plate was visualized by bright-field and fluorescence microscopy (Nikon Eclipse Ti−U) with TRITC filter set. The magnification was 20×. Corrected total cell fluorescence (CTCF) intensity was estimated using the equation CTCF = integrated density − (area of selected cell) × (mean fluorescence of background). A rectangular drawing/selection tool in ImageJ was used to select a desired region with fluorescence, and its integrated density and area were measured. […] Cell counts were 30 for each group from three separate wells.
The corrected total cell fluorescence (CTCF) was calculated as follows:1 2 CTCF = integrated density – (area of selected cell × mean fluorescence of background readings)
Supplementary Table 1. Statistics Data of CTCF at each timepoint measured from fluorescence images of Ac-E5G2KSYIGR-KRB with trypsin, and control peptides mentioned […]
Comparison Mean q P value […]
Group comparisons are indicated as determined by a one -way analysis of variance (ANOVA) with a Student−Newman−Keuls comparisons post hoc test. *** indicates p < 0.001, ** indicates p < 0.01, * indicates p < 0.05, and ns indicates no significance among indicated

[4] = system: trypsin; experiment: trypsin (0.08 wt% total) in PBS buffer; details: 37 °C
[5] = molecular target: T1, trypsin (Sus scrofa, UniProt P00761); experiment: Trypsin cleavage of switch peptide followed by MALDI-TOF MS; assay type: biochemical
T1 construct: purchased VWR (Radnor, PA, USA)
T1 sequence (P00761 9-231): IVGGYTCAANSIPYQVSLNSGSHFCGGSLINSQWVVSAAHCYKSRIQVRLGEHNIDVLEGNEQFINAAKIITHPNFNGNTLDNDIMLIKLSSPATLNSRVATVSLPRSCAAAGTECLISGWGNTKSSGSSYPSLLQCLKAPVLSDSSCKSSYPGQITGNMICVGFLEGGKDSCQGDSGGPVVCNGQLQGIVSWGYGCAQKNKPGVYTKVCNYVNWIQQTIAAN
Method: We followed the kinetics of Lys residue cleavage by trypsin and functional peptide formation using MALDI-TOF mass spectrometry (MS). We tracked disappearance of the switch peptide peak and evolution of the intermediate or functional peptide peak (SYIGR or Ac-YIGSR; both have the same exact mass) after treatment with trypsin. […] After 3 h, the intensity of both signals was similar, and after 24 h the switch peptide signal disappeared completely, while the intermediate/functional peptide peak became dominant, indicating near-complete conversion.
Addition of the KRB unit created a new potential cleavage site for trypsin at the C-terminal side of the Arg residue (i.e., the R–KRB peptide bond). To ensure the desired response still occurred, i.e., cleavage of the K–SYIG peptide bond to remove the N-terminal Lys residue, we designed an experiment to follow the transformation of KSYIGRK as a representative peptide that contains two potential cleavage points, the desired K–SYIG peptide bond and the undesired R–K peptide bond. We treated this peptide with trypsin and followed bond cleavage at these two sites using MALDI-TOF MS. […] However, we envisioned that this undesired cleavage would not be a problem in cell studies because it would simply generate a KRB species that would be removed in washing steps.
Switch peptide solution (100 μL, 5 mg/mL in PBS) was mixed with 20 μL of a trypsin solution (0.25%) in a vial and placed at 37 °C in an incubator. Aliquots (2 μL) from each reaction solution were withdrawn at specific times, and trypsin was deactivated immediately by the addition of acetic acid (0.3 μL, 1 M in distilled water). Samples (0.8 μL) were then mixed with a matrix solution (0.8 μL, 0.02 M α-cyano-4-hydroxycinnamic acid dissolved in acetonitrile/methanol/water (1:1:1) with 0.1% formic acid) and deposited on a MALDI plate (Opti-TOF 384 Well, 123 × 81 mm). Samples were analyzed using a matrix-assisted laser desorption ionization−tandem time-of-flight mass spectrometer (4800 MALDI TOF/TOF, AB Sciex).

[6] = system: HUVECs; experiment: Cell viability assay (CCK-8); assay type: cell-based, human
Method: HUVECs (ATCC catalog number PCS-100-010) were plated in a 96-well plate at a density of 5000 cells per well in 200 μL complete ECGM per well. After culturing for 24 h, the media was discarded and the cells were washed with 1X PBS three times before […] serum-containing ECGM media was added. Next, varying amounts of peptide stock solution (4 mM in PBS) were diluted to […] with PBS and added to the wells to make the final peptide concentrations ranging from 10 to 200 µM. After incubation for 24 h, cells were washed three times with PBS and then treated with serum-free ECGM media (100 μL). Next, 10 μL cell counting kit 8 solution (CCK-8, Dojindo, Rockville, MD) was added to each well. After incubation for another 3 h to allow for development of the CCK8 dye, absorbance was recorded at 450 and 750 nm using a BioTek Synergy Mx plate reader (BioTek, Winooski, VT). Worked-up data (absorbance at 750 nm subtracted from absorbance at 450 nm) were graphed using GraphPad InStat, version 3 (GraphPad Software, Inc., San Diego, CA). Mean values are reported together with the standard deviation (SD) representing the combination of 3 independent experimental runs with five replicates per experiment.

[7] = system: CD29 (integrin β1); experiment: Immunofluorescence co-localization with CD29; assay type: cell-based, human; details: HUVECs, 50 µM peptide, 24 h, fixed, confocal microscopy, done once
Method: HUVEC cells were seeded in an 8-chamber glass slide (Lab-Tek Chamber Slide) at a density of 30,000 cells per well in 0.4 mL complete ECGM media per well. After culturing for 24 h, cells were washed twice with 1× PBS. The cells were then incubated with 395 μL of serum-free ECGM media […] in the following groups: Blank (5 μL PBS), and 4 mM Ac-YIGSR-KRB (5 μL in PBS, final concentration 50 µM). After incubation for 24 h, the media was removed, and cells were washed with PBS three times. Cultured cells were then fixed in 10% formalin for 5 min, then washed three times with PBS for 5 min each. Slides were blocked for 1 h with 2% cold water fish skin gelatin (Sigma, Inc., St. Louis, MO, USA) and 0.2% triton-X100 solution. Slides were then incubated in conjugated primary antibody diluted in blocking solution overnight at room temperature, then washed with PBS five times for 10 min each. The antibody used was FITC Armenian hamster anti-mouse/rat CD29 at a 1:50 dilution (Biolegend, San Diego, CA, USA; Catalog number 102205, clone HMbeta1-1), validated by the manufacturer by immunofluorescent staining with flow cytometric analysis. Finally, slides were mounted with DAPI Fluoromount-G (SouthernBiotech, Birmingham, AL, USA). Images were then obtained using a Nikon A1 Confocal Microscope with NIS Elements Imaging Software (Melville, New York, USA).

[8] = system: trypsin; experiment: trypsin solution (0.25%) mixed with switch peptide solution in PBS; details: 37 °C, up to 24 h
[9] = switch peptide 5 mg/mL in PBS (100 μL) + 20 μL 0.25% trypsin, 37 °C

Molecule: COc1cc(/C=C/C(=O)CC(=O)/C=C/c2ccc(O)c(OC)c2)ccc1O [curcumin]
- APN activity remaining with inhibitor [1]: ~ 25%
- viability of HUVECs [2]: > 80%

Molecule: Ac-E5G2KSYIGRKRB (lariat or depsi) [Ac-E5G2KSYIGR-KRB, switch peptide labeled with the fluorescent probe rhodamine B]
- fluorescence signal on HUVECs after washing (in words) ([3]; with trypsin, 1 h): negligible fluorescent signal
- fluorescence signal on HUVECs after washing (in words) ([3]; with trypsin, 30 h): strong signal
- fluorescence signal on HUVECs after washing (in words) ([3]; without trypsin, 30 h): no fluorescence signal

- cleaved bond [4]: K-S and R-K
Molecule: Ac-KSYIGRK

- trypsin cleavage at K–SYIG versus R–K peptide bond ([5]; trypsin, cleavage at either site but not both simultaneously): approximately the same rate
Molecule: Ac-KSYIGRK (also: lariat or depsi (positions not given here))

Molecule: Ac-KYIGR-KRB [fluorescence labeled peptide with YIG on the side chain, cannot undergo a switch; negative control]
- fluorescence signal on HUVECs after washing (in words) ([3]; with trypsin, 30 h): no fluorescence
- fluorescence signal on HUVECs after washing (in words) ([3]; without trypsin, 30 h): no fluorescence

Molecule: Ac-YIGSR [functional cell-adhesive pentapeptide derived from the ECM protein laminin, reference compound]
- cytotoxicity in cell viability studies ([6]; HUVECs, CCK-8, peptide up to 200 µM, 24 h): no cytotoxicity

Molecule: Ac-YIGSR-KRB [rhodamine B-labeled functional peptide, positive control]
- fluorescence signal on HUVECs after washing (in words) ([3]; without trypsin, 30 h): strong fluorescence
- co-localization of rhodamine B-labeled peptide with anti-CD29-FITC stain [7]: colocalized with integrin β1

- time after which switch peptide signal (m/z = 764) started to decrease [5, 9]: 1 h
- time at which intensity of switch peptide and intermediate/functional peptide signals was similar [5, 9]: 3 h
- time at which switch peptide signal disappeared completely (near-complete conversion) [5, 9]: 24 h
Molecule: KSYIGR (also: lariat or depsi (positions not given here)) [non-functional depsipeptide; SYIG = Ser residue esterified with Ac-YIG; trypsin removes N-terminal Lys]

- cleaved bond [8]: Lys-Ser, 1 h
Molecule: KSYIGR, where the SYIG unit indicates a Ser residue esterified with the Ac-YIG peptide sequence (Ac = acetyl)

B1: trypsin: enzyme that cleaves peptide bonds on the C-terminal side of positively charged residues (protein, UniProt P00760 24-246, looked up)
Serine protease 1: IVGGYTCGANTVPYQVSLNSGYHFCGGSLINSQWVVSAAHCYKSGIQVRLGEDNINVVEGNEQFISASKSIVHPSYNSNTLNNDIMLIKLKSAASLNSRVASISLPTSCASAGTQCLISGWGNTKSSGTSYPDVLKCLKAPILSDSSCKSAYPGQITSNMFCAGYLEGGKDSCQGDSGGPVVCSGKLQGIVSWGSGCAQKNKPGVYTKVCNYVSWIKQTIASN
- cytotoxicity in cell viability studies [6]: no cytotoxicity
